{
  "source": "ChEMBL document CHEMBL1126754",
  "about": "“Hydroxyurea derivatives as hypoglycemic agents” (1993)",
  "key": {"Mus musculus [1]": {"system": "Mus musculus", "assay": "In vivo ability to lower blood glucose in the ob/ob mouse model at a dose of 5 mg/kg", "assay_type": "functional"}, "3T3-L1 [2]": {"system": "3T3-L1", "assay": "Effect on GLUT 1 glucose transporter expression in 3T3-L1 adipocytes at dose of 30 uM", "assay_type": "functional, Mus musculus"}, "Mus musculus [3]": {"system": "Mus musculus", "assay": "In vivo ability to lower blood glucose in the ob/ob mouse model at a dose of 10 mg/kg", "assay_type": "functional"}, "3T3-L1 [4]": {"system": "3T3-L1", "assay": "Effect on GLUT 1 glucose transporter expression in 3T3-L1 adipocytes at dose of 3 uM", "assay_type": "functional, Mus musculus"}, "3T3-L1 [5]": {"system": "3T3-L1", "assay": "Effect on GLUT 1 glucose transporter expression in 3T3-L1 adipocytes at dose of 0.3 uM", "assay_type": "functional, Mus musculus"}, "Mus musculus [6]": {"system": "Mus musculus", "assay": "In vivo ability to lower blood glucose in the ob/ob mouse model at a dose of 25 mg/kg", "assay_type": "functional"}, "Mus musculus [7]": {"system": "Mus musculus", "assay": "In vivo ability to lower blood glucose in the ob/ob mouse model at a dose of 1 mg/kg", "assay_type": "functional"}},
  "data": [
    {"smiles": "CCCCCc1ccc(C(=O)N[C@H]2N=C(c3ccccc3)c3ccccc3N(C)C2=O)cc1", "values": [
      {"measurement": "Glucose normalisation", "setting": "Mus musculus [1]", "value": 50, "unit": "%"}
    ]},
    {"smiles": "CNC(=O)N(O)Cc1ccc(OCCc2nc(-c3ccccc3)oc2C)cc1", "values": [
      {"measurement": "Glucose normalisation", "setting": "Mus musculus [1]", "value": 25, "unit": "%"}
    ]},
    {"smiles": "Cc1oc(-c2ccccc2)nc1CCOc1ccc(Cn2oc(=O)[nH]c2=O)cc1", "values": [
      {"measurement": "Effect", "setting": "3T3-L1 [2]", "value": 142.3, "unit": "%"},
      {"measurement": "Glucose normalisation", "setting": "Mus musculus [3]", "value": 100, "unit": "%"},
      {"measurement": "Effect", "setting": "3T3-L1 [4]", "value": 130.6, "unit": "%"},
      {"measurement": "Effect", "setting": "3T3-L1 [5]", "value": 109.7, "unit": "%"},
      {"measurement": "Glucose normalisation", "setting": "Mus musculus [6]", "value": 97, "unit": "%"},
      {"measurement": "Glucose normalisation", "setting": "Mus musculus [7]", "value": 45, "unit": "%"}
    ]},
    {"smiles": "Cc1oc(-c2ccccc2)nc1CCOc1ccc(CN(OC(=O)Oc2ccccc2)C(N)=O)cc1", "values": [
      {"measurement": "Glucose normalisation", "setting": "Mus musculus [1]", "value": 25, "unit": "%"}
    ]},
    {"smiles": "COC(=O)ON(Cc1ccc(OCCc2nc(-c3ccccc3)oc2C)cc1)C(N)=O", "values": [
      {"measurement": "Effect", "setting": "3T3-L1 [2]", "value": 164.5, "unit": "%"},
      {"measurement": "Glucose normalisation", "setting": "Mus musculus [3]", "value": 77, "unit": "%"},
      {"measurement": "Glucose normalisation", "setting": "Mus musculus [1]", "value": 80, "unit": "%"},
      {"measurement": "Effect", "setting": "3T3-L1 [4]", "value": 113, "unit": "%"},
      {"measurement": "Effect", "setting": "3T3-L1 [5]", "value": 90.5, "unit": "%"},
      {"measurement": "Glucose normalisation", "setting": "Mus musculus [6]", "value": 100, "unit": "%"},
      {"measurement": "Glucose normalisation", "setting": "Mus musculus [7]", "value": 28, "unit": "%"}
    ]},
    {"smiles": "Cc1oc(-c2ccccc2)nc1CCOc1ccc(CN(O)C(N)=O)cc1", "values": [
      {"measurement": "Effect", "setting": "3T3-L1 [2]", "value": 140.6, "unit": "%"},
      {"measurement": "Effect", "setting": "3T3-L1 [4]", "value": 109.8, "unit": "%"},
      {"measurement": "Effect", "setting": "3T3-L1 [5]", "value": 97, "unit": "%"}
    ]},
    {"smiles": "CNC(=O)N(Cc1ccc(OCCc2nc(-c3ccccc3)oc2C)cc1)OC(=O)OC", "values": [
      {"measurement": "Glucose normalisation", "setting": "Mus musculus [1]", "value": 25, "unit": "%"}
    ]},
    {"smiles": "CCOC(=O)ON(Cc1ccc(OCCc2nc(-c3ccccc3)oc2C)cc1)C(N)=O", "values": [
      {"measurement": "Glucose normalisation", "setting": "Mus musculus [1]", "value": 52, "unit": "%"}
    ]},
    {"smiles": "CC1(COc2ccc(CC3SC(=O)NC3=O)cc2)CCCCC1", "note": "(configuration not stated) [CIGLITAZONE]", "values": [
      {"measurement": "Effect", "setting": "3T3-L1 [2]", "value": 151.3, "unit": "%"}
    ]}
  ]
}
